Data reported in patent US10836756B2, “Crystalline salts of peptide epoxyketone immunoproteasome inhibitor” (KEZAR LIFE SCIENCES, priority 2016, dated 2020).
Counter-ions that a name gives are not always drawn. Like-named read-outs stand apart in the source and are kept apart here. Blank lines part the entries; values can stand above or below the molecule they belong to.

Key:
[1] = Olovson et al. 1986, Kumar et al. 2013; cited from earlier work
[2] = Stability of Form A and its freebase, one month storage; format: physicochemical; details: for % Decomposition: 1 month
Method: The stability of Form A and its freebase was tested at ambient conditions (25° C. and 40% relative humidity, “RH”), and at elevated temperature and humidity (40° C. and 75% RH) over the duration of one month.

[3] = Solubility of compound G (amorphous) and its monomaleate salt (crystalline) in water, buffers and solvents; format: physicochemical
[4] = pKa of the monomaleate salt; format: physicochemical

SMILES: C=CCc1ccccc1OCC(O)CNC(C)C (stereo not drawn) [alprenolol]
solubility of the maleate salt compared to other counterions, such as fumarate [1]: decreased solubility

% Decomposition ([2]; 25° C./40% RH, lot 1): 1.9%
% Decomposition ([2]; 25° C./40% RH, lot 2): 1.6%
% Decomposition ([2]; 25° C./40% RH, lot 3): 1.4%
% Purity at 1 Month ([2]; 25° C./40% RH, lot 1 (purity at t = 0 95.1)): 93.2%
% Purity at 1 Month ([2]; 25° C./40% RH, lot 2 (purity at t = 0 85.6)): 84.0%
% Purity at 1 Month ([2]; 25° C./40% RH, lot 3 (purity at t = 0 93.7)): 92.3%
stability at elevated temperature and humidity (in words) ([2]; 40° C. and 75% RH, one month): rapid decomposition
% Decomposition ([2]; 40° C./75% RH, lot 1): 67.5%
% Decomposition ([2]; 40° C./75% RH, lot 2): 28.8%
% Decomposition ([2]; 40° C./75% RH, lot 3): 21.1%
% Purity at 1 Month ([2]; 40° C./75% RH, lot 1 (purity at t = 0 95.1)): 92.3%
% Purity at 1 Month ([2]; 40° C./75% RH, lot 2 (purity at t = 0 85.6)): 92.3%
% Purity at 1 Month ([2]; 40° C./75% RH, lot 3 (purity at t = 0 93.7)): 72.5%
solubility ([3]; 25 mM Na citrate buffer, pH 4.9, aqueous buffer, 25 mM Na Citrate, pH 4.9, amorphous, read-out: Solubility): 46000 µg/mL
solubility ([3]; 25 mM Na citrate buffer, pH 5.1, aqueous buffer, 25 mM Na Citrate, pH 5.1, amorphous, read-out: Solubility): 32000 µg/mL
solubility ([3]; 25 mM Na citrate buffer, pH 5.2, aqueous buffer, 25 mM Na Citrate, pH 5.2, amorphous, read-out: Solubility): 24800 µg/mL
solubility ([3]; 25 mM Na citrate buffer, pH 5.4, aqueous buffer, 25 mM Na Citrate, pH 5.4, amorphous, read-out: Solubility): 19500 µg/mL
solubility ([3]; 25 mM Na citrate buffer, pH 5.8, aqueous buffer, 25 mM Na Citrate, pH 5.8, amorphous, read-out: Solubility): 11200 µg/mL
solubility ([3]; 25 mM Na citrate buffer, pH 6.3, aqueous buffer, 25 mM Na Citrate, pH 6.3, amorphous, read-out: Solubility): 9800 µg/mL
solubility ([3]; 25 mM Na citrate buffer, pH 6.8, aqueous buffer, 25 mM Na Citrate, pH 6.8, amorphous, read-out: Solubility): 8800 µg/mL
solubility ([3]; 0.9% saline, pH 7.6, saline or isotonic, 0.9% saline, pH 7.6, amorphous, read-out: Solubility): 9400 µg/mL
solubility ([3]; 10% EtOH, aqueous with cosolvent or surfactant or cyclodextrin, EtOH, 10%, amorphous, read-out: Solubility): 13700 µg/mL
solubility ([3]; 10% NMP, aqueous with cosolvent or surfactant or cyclodextrin, NMP, 10%, amorphous, read-out: Solubility): 28800 µg/mL
solubility ([3]; 10% PEG 400, aqueous with cosolvent or surfactant or cyclodextrin, PEG 400, 10%, amorphous, read-out: Solubility): 11800 µg/mL
solubility ([3]; 10% PG, aqueous with cosolvent or surfactant or cyclodextrin, PG, 10%, amorphous, read-out: Solubility): 12100 µg/mL
solubility ([3]; 10% glycerol, aqueous with cosolvent or surfactant or cyclodextrin, glycerol, 10%, amorphous, read-out: Solubility): 8600 µg/mL
solubility ([3]; 33% EtOH, aqueous with cosolvent or surfactant or cyclodextrin, EtOH, 33%, amorphous, read-out: Solubility): 20000 µg/mL
solubility ([3]; 33% NMP, aqueous with cosolvent or surfactant or cyclodextrin, NMP, 33%, amorphous, read-out: Solubility): > 100000 µg/mL
solubility ([3]; 33% PEG 400, aqueous with cosolvent or surfactant or cyclodextrin, PEG 400, 33%, amorphous, read-out: Solubility): 17400 µg/mL
solubility ([3]; 33% PG, aqueous with cosolvent or surfactant or cyclodextrin, PG, 33%, amorphous, read-out: Solubility): 20500 µg/mL
solubility ([3]; 33% glycerol, aqueous with cosolvent or surfactant or cyclodextrin, glycerol, 33%, amorphous, read-out: Solubility): 5800 µg/mL
solubility ([3]; 67% EtOH, aqueous with cosolvent or surfactant or cyclodextrin, EtOH, 67%, amorphous, read-out: Solubility): > 100000 µg/mL
solubility ([3]; 67% NMP, aqueous with cosolvent or surfactant or cyclodextrin, NMP, 67%, amorphous, read-out: Solubility): > 100000 µg/mL
solubility ([3]; 67% PEG 400, aqueous with cosolvent or surfactant or cyclodextrin, PEG 400, 67%, amorphous, read-out: Solubility): > 50000 µg/mL
solubility ([3]; 67% PG, aqueous with cosolvent or surfactant or cyclodextrin, PG, 67%, amorphous, read-out: Solubility): > 100000 µg/mL
solubility ([3]; 67% glycerol, aqueous with cosolvent or surfactant or cyclodextrin, glycerol, 67%, amorphous, read-out: Solubility): 5400 µg/mL
solubility ([3]; 100% EtOH, organic solvent or mixture, EtOH, 100%, amorphous, read-out: Solubility): > 100000 µg/mL
solubility ([3]; 100% NMP, organic solvent or mixture, NMP, 100%, amorphous, read-out: Solubility): > 100000 µg/mL
solubility ([3]; 100% PEG 400, organic solvent or mixture, PEG 400, 100%, amorphous, read-out: Solubility): > 50000 µg/mL
solubility ([3]; 100% PG, organic solvent or mixture, PG, 100%, amorphous, read-out: Solubility): > 100000 µg/mL
solubility ([3]; PBS, pH 7.2, aqueous buffer, PBS, pH 7.2, amorphous, read-out: Solubility): 7600 µg/mL
solubility ([3]; glycerol, 100%, amorphous): not soluble
solubility ([3]; water, pH 7.4, water, Water, pH 7.4, amorphous, read-out: Solubility): 8900 µg/mL
solubility ([3]; water, read-out: solubility in water): 8900 µg/mL
SMILES: COc1ccc([C@@H](O)[C@H](NC(=O)[C@H](C)NC(=O)CN2CCOCC2)C(=O)N[C@@H](CC2=CCCC2)C(=O)[C@@]2(C)CO2)cc1 [compound G, (2S,3R)—N-[(2S)-3-(cyclopent-1-en-1-yl)-1-[(2R)-2-methyloxiran-2-yl]-1-oxopropan-2-yl]-3-hydroxy-3-(4-methoxyphenyl)-2-[(2S)-2-[2-(morpholin-4-yl)acetamido]propanamido]propanamide]

pKa [4]: 5
solubility ([3]; 2-methyltetrahydrofuran, organic solvent or mixture, 2-Methyltetrahydrofuran, crystalline, read-out: Solubility): 1760 µg/mL
solubility ([3]; acetone, organic solvent or mixture, Acetone, crystalline, read-out: Solubility): 3190 µg/mL
solubility ([3]; acetonitrile, organic solvent or mixture, Acetonitrile (ACN), crystalline, read-out: Solubility): 1300 µg/mL
solubility ([3]; aqueous medium, aqueous, read-out: aqueous solubility): > 100000 µg/mL
solubility ([3]; dichloromethane, organic solvent or mixture, Dichloromethane (DCM), crystalline, read-out: Solubility): 210 µg/mL
solubility ([3]; ethanol, organic solvent or mixture, Ethanol (EtOH), crystalline, read-out: Solubility): 6970 µg/mL
solubility ([3]; ethyl acetate, organic solvent or mixture, Ethyl acetate (EA), crystalline, read-out: Solubility): 470 µg/mL
solubility ([3]; isopropanol, organic solvent or mixture, Isopropanol (IPA), crystalline, read-out: Solubility): 3280 µg/mL
solubility ([3]; isopropyl acetate, organic solvent or mixture, Isopropyl acetate (IPAc), crystalline, read-out: Solubility): 130 µg/mL
solubility ([3]; methanol, organic solvent or mixture, Methanol (MeOH), crystalline, read-out: Solubility): 42100 µg/mL
solubility ([3]; methyl tert-butyl ether, organic solvent or mixture, Methyl tert-butyl ether (MTBE), crystalline, read-out: Solubility): 170 µg/mL
solubility ([3]; tetrahydrofuran, organic solvent or mixture, Tetrahydrofuran (THF), crystalline, read-out: Solubility): 1960 µg/mL
solubility ([3]; toluene, organic solvent or mixture, Toluene, crystalline, read-out: Solubility): 20 µg/mL
solubility ([3]; water, ambient temperature (e.g., 20° C. to 25° C.), read-out: solubility in water): > 100000 µg/mL
SMILES: COc1ccc([C@@H](O)[C@H](NC(=O)[C@H](C)NC(=O)CN2CCOCC2)C(=O)N[C@@H](CC2=CCCC2)C(=O)[C@@]2(C)CO2)cc1 [monomaleate salt of compound G]
